Legend:
[1] = system: Peripheral blood mononuclear cells co-cultured with venular endothelial cells (HUVEC) (LPS system); test: BioMAP LPS system; format: cell-based, human; conditions: 10 uM, procedure of Example 827
[2] = system: tyrosine hydroxylase positive mesencephalic neurons injured by 6-OHDA; test: Neuroprotective effect on damage induced by 6-OHDA on culture of mesencephalic neurons; format: cell-based; conditions: Rattus norvegicus, Neuron; 50 uM; 6-OHDA 15 μM, 48h; read-out: % reversion of TH positive neurons (6-OHDA-mediated degradation of dopaminergic neurons)
Description: The protective effect of compounds of the present disclosure was determined on 6-OHDA-mediated injury on mesencephalon neuronal cultures.
A female Wistar rat (Janvier; France) of 15 days gestation was terminated by cervical dislocation, the fetuses were removed from the uterus and their brains were harvested and placed in ice-cold medium (Leibovitz's L15 medium, Gibco). Only ventral mesencephalic flexure was used for the cell preparations. The midbrain was dissociated by trypsinization. The reaction was stopped, and the suspension was triturated and centrifuged. The pellet of dissociated cells was resuspended in chemically defined medium consisted of Neurobasal (Gibco, 21103049), containing B27 supplement (Gibco, A3582801) and L-glutamine (Gibco, 25030081), 10 ng/ml (BDNF; Pepro Tech, France, 450-02) and 1 ng/ml (GDNF; Pepro Tech, 450-51).
Viable primary rat embryo mesencephalic cells were counted and seeded on 96-multi-wells plate precoated with poly-L-lysine. Cells were maintained in a humidified incubator at 37° C. in 5% CO2-95% air atmosphere and medium changed on day 2. On day 6, the culture medium was removed and replaced by new media without neurotrophic factors containing the compounds of the present disclosure (50-10 μM) or vehicle (0.1% DMSO). After 1h exposure, injury of mesencephalon neuronal cultures was induced by 6-OHDA (15 μM) for further 48h. A mixture of the growth factors GDNF (1 ng/ml) and BDNF (10 ng/ml) were used as reference compound. On day 8, the tyrosine hydroxylase positive neurons were evaluated. Cultures were fixed 30 min at 4° C. with paraformaldehyde in PBS (4%, Sigma). After, cells were permeabilized with 0.1% Triton X100 for 30 min, saturated with PBS containing 3% of BSA (bovine serum albumin) and incubated 2h with anti-tyrosine hydroxylase antibody (Sigma, 1:10000; clone TH-2) at 1/10000 in PBS containing 0.5% of BSA. Cells were washed three times with PBS containing 0.5% of BSA and incubated 1h with goat anti mouse antibody coupled with AF488 (Invitrogen A11001) diluted at 1/1000 in PBS containing 0.5% of BSA. Finally, nuclei were stained with DAPI (Thermo fisher, D1306) at 1/1000 in PBS containing 0.5% of BSA. After rinsing with PBS, the plate was visualized and examined with Cell Insight HCS (Thermo Scientific) to determine the number of tyrosine hydroxylase positive cells per well.
The results for each well were expressed as a percentage by setting the density of tyrosine hydroxylase positive cells under control conditions to 100%. Then the result for each condition was reported as mean±SEM from 4 independent cultures.
A global analysis of the data was performed using a one-way analysis of variance (ANOVA), followed by Fisher's Protected Least Significant Difference when applicable. The level of significance was set to p<0.05.

[3] = system: Very long-chain acyl-CoA dehydrogenase (VLCAD) primary fibroblasts GM17475; test: NADP+/NADPH (NADP/NADPH-Glo), VLCAD fibroblasts GM17475; format: cell-based; conditions: Homo sapiens, Fibroblast, VLCAD GM17475 P10, assay condition A (10 mM glucose, 2 mM L-glutamine, 1 mM pyruvate, 10% FBS), 24h, read-out: Increase in Total NADP+ + NADPH
Description: Primary adherent fibroblasts were cultured in minimum essential medium (MEM) (Gibco, 25030081) supplemented with 2 mM L-Glutamine (Gibco, 25030081), 15% fetal bovine serum (FBS) (Gibco, 26400044) and 1% penicillin/streptomycin (Gibco, 5140122) at 37° C. and 5% CO2. Cells were collected for either passaging or experiment at ˜70-80% confluence. Cells were obtained by trypsinization and seeded in cell culture microplates either white plate (Thermo Fisher Scientific, 152028) for luminescent measurement or black plate (Thermo Fisher Scientific, 165305) for fluorescent based read out for different assays listed below. Cells were obtained by trypsinization and […] were seeded and allowed to adhere for 16-18 hours to have confluency around 70-80% in the cell well with culture media. After 24 hours prior to measurements (37° C., 5% CO2) media was changed to Dulbecco's Modified Eagle Medium (DMEM, Agilent Seahorse cat #103575-100) with the appropriate supplements as stated below.
Primary fibroblasts assayed were Propionic Acidemia (PA) (GM03590 Coriell Institute for Medical Research, Tsi 6337 Trans-Hit Bio), Methylmalonic Acidemia (MMA) (Tsi 5224 Trans-Hit Bio), Subnormal activation of pyruvate dehydrogenase complex (PDH) (GM01503 Coriell Institute for Medical Research), Very long-chain acyl-CoA dehydrogenase (VLCAD) (GM17475), Leigh Syndrome (LS) (GM03672, GM13411 Coriell Institute for Medical Research), Pyruvate Carboxylase Deficiency (PC) (GM00444 Coriell Institute for Medical Research). 10 μM of Compounds were added for 2 hours in PA, MMA lines and for 24h for the other fibroblast lines.
Assay was performed according to manufacturer instructions (NADP+/NADPH-Glo Assay Promega, G9082). Assay required a plate for total measurement of NADP+/NADPH and a plate for individual measurement of NADP+ or NADPH. For every assay a 12-point standard curve is prepared ranging from 400 nM to 0.625 nM. Media is removed and replaced with 50 μl of PBS for both assays.
For individual NADP+/NADPH measurements, 50 μl of 1% DTAB (Sigma, D5047) (cell lysis reagent) in 0.2N NaOH was added to the plates and 100 μl of lysate was split into two plates with 50 μl each from which ratio of NADP/NADPH can be calculated. 25 μl of 0.4N HCl were added to the NADP+ plates and both NADP+ and NADPH plates were heated at 60° C. for 15 minutes. The acid and heat treatment destroyed NADPH allowing individual NADP+ measurements while heating in basic conditions destroys NADP+ allowing individual NADPH measurement. After 15 minutes plates were allowed to come to room temperature and Trizma base (Sigma, T1699) was added to the NADP+ plates to neutralize the acid and HCl Trizma hydrochloride (Sigma, T2694) was added to the NADPH plates. The NADNADPH glo reagent was prepared by adding 125 μl of NAD cycling substrate, 125 μl of reductase, 125 μl of reductase substrate, 125 μl NAD cycling enzyme to a total of the 25 ml of NAD GLO reagent. 1:1 ratio of total volume of reagent was added to the individual NADP+, NADPH measurements (total 100 μl) and 50 μl were added for the total NAD/NADPH measurements. Luminescence was measured for 30-60 minutes within the linear range.
A total dead cell count was performed as described in Example 817 and only alive cells were used for analysis.

SMILES | % decrease in Thrombomodulin [1] [%] | inhibition at 10 µM ([1]; Homo sapiens, HUVEC, 24 h, read-out: % decrease in TissueFactor) [%] | activation at 10 µM ([1]; Homo sapiens, HUVEC, 24 h, read-out: % increase in sTNFα) [%] | inhibition at 50 µM [2] [%] | activation at 10 µM [3] [%]
C[C@@H](O)CC(=O)CC(=O)SCCNC(=O)CCNC(=O)[C@H](O)C(C)(C)CO [Compound 42, (2R)-2,4-dihydroxy-N-[2-[(2-[[(5R)-5-hydroxy-3-oxohexanoyl]sulfanyl]ethyl)carbamoyl]ethyl]-3,3-dimethylbutanamide] | ≥10 | ≥ 10 | ≥ 10 | ≥ 30 | ≥ 10
CC(=O)OCC(C)(C)[C@@H](O)C(=O)NCCC(=O)NCCSC(=O)CC(=O)CCC(=O)O [Compound 140, 6-[(2-[3-[(2R)-4-(acetyloxy)-2-hydroxy-3,3-dimethylbutanamido]propanamido]ethyl)sulfanyl]-4,6-dioxohexanoic acid] |  |  |  | ≥ 30 | ≥ 10
